Target: T1, full-length human PKCι (Homo sapiens, UniProt P41743)
T1 construct: Recombinant, full-length human PKCι expressed in Sf21 insect cells is also commercially available; purchased; host or cells: Sf21 insect cells
T1 sequence (P41743 1-596): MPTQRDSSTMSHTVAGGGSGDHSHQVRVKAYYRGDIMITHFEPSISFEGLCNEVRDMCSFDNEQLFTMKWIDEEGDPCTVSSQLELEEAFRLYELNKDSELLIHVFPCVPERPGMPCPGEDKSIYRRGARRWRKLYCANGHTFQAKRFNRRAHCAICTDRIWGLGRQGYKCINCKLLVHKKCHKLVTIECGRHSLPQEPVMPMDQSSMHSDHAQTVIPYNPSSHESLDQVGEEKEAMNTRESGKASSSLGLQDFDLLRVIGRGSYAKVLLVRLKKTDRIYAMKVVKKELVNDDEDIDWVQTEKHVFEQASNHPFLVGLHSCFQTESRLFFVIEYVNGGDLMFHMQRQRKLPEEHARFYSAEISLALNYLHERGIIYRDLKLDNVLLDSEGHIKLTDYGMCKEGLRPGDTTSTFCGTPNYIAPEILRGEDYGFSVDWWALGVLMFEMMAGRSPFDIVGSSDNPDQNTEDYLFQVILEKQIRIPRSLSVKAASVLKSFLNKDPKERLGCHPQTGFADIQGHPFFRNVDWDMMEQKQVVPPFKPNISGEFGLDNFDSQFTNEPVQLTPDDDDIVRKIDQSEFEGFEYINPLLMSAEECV
Assay: PKCι IC50 IMAP assay, full-length PKCι at 150 μM ATP
Format: biochemical
Conditions: read-out: IC50 in IMAP assay against full length PKCi at 150 μM ATP
Summary of the method: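 Phosphorylation of a 5FAM-tagged PKCε pseudopeptide-derived substrate (100 nM) by full-length recombinant human PKCι was monitored by IMAP fluorescence polarisation. ATP was held at 150 μM, five times its apparent KM, with 60 min room-temperature incubation.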

| SMILES | IC50 |
| --- | --- |
| COc1cc(Nc2cc(-c3nc(N4CCNCC4)c4c(C5CC5)cncc4n3)ccn2)ccc1F [Example 627, [4-(5-Cyclopropyl-4-piperazin-1-yl-pyrido[3,4-d]pyrimidin-2-yl)-pyridin-2-yl]-(4-fluoro-3-methoxy-phenyl)-amine] | < 100 nM |
| COc1cncc2nc(-c3ccnc4[nH]c(Cc5ccccc5F)cc34)nc(N3CCNCC3)c12 [Example 1203, 2-[2-(2-Fluoro-benzyl)-1H-pyrrolo[2,3-b]pyridin-4-yl]-5-methoxy-4-piperazin-1-yl-pyrido[3,4-d]pyrimidine] | < 100 nM |
| Fc1cc(C2CC2)c(F)nc1Nc1cc(-c2nc(N3CCNCC3)c3c(C4CC4)cncc3n2)ccn1 [Example 2047, (5-Cyclopropyl-3,6-difluoro-pyridin-2-yl)-[4-(5-cyclopropyl-4-piperazin-1-yl-pyrido[3,4-d]pyrimidin-2-yl)-pyridin-2-yl]-amine] | < 100 nM |
| N[C@H](CNc1nc(-c2ccncc2)nc2c(-c3ccc4occc4c3)nccc12)Cc1ccccc1 [Example 97, N-[(2S)-2-amino-3-phenylpropyl]-8-(1-benzofuran-5-yl)-2-(pyridin-4-yl)-pyrido[3,4-d]-pyrimidin-4-amine] | 100 to 1000 nM |
| O=C(C1CCN(c2nc(-c3ccnc(Nc4c(F)cccc4F)c3)nc3cncc(C4CC4)c23)CC1)N1CCNCC1 [Example 741, (1-{5-Cyclopropyl-2-[2-(2,6-difluoro-phenylamino)-pyridin-4-yl]-pyrido[3,4-d]pyrimidin-4-yl}-piperidin-4-yl)-piperazin-1-yl-methanone] | 100 to 1000 nM |
| c1ccc2sc(Nc3cc(-c4nc(N5CCNCC5)c5c(C6CC6)cncc5n4)ccn3)nc2c1 [Example 2045, Benzothiazol-2-yl-[4-(5-cyclopropyl-4-piperazin-1-yl-pyrido[3,4-d]pyrimidin-2-yl)-pyridin-2-yl]-amine] | < 100 nM |
| COc1cncc2nc(-c3ccnc(NC(=O)Cc4cccc(C#N)c4)c3)nc(N3CCN(C)CC3)c12 [Example 404, 2-(3-Cyano-phenyl)-N-{4-[5-methoxy-4-(4-methyl-piperazin-1-yl)-pyrido[3,4-d]pyrimidin-2-yl]-pyridin-2-yl}-acetamide] | 100 to 1000 nM |
| CN(c1nc(-c2ccnc(Nc3ccc4ccccc4n3)c2)nc2cncc(C3CC3)c12)C1CCNCC1 [Example 2138, {5-Cyclopropyl-2-[2-([D4],[D3]uinolin-2-ylamino)-pyridin-4-yl]-pyrido[3,4-d]pyrimidin-4-yl}-methyl-piperidin-4-yl-amine] | < 100 nM |
| O=C(Cc1ccccc1)Nc1cc(-c2nc(N[C@@H]3CCNC3)c3ccncc3n2)ccn1 [Example 334, 2-Phenyl-N-{4-[4-((R)-pyrrolidin-3-ylamino)-pyrido[3,4-d]pyrimidin-2-yl]-pyridin-2-yl}-acetamide] | 1000 to 10000 nM |
| O[C@@H]1CN(c2nc(-c3ccnc(Nc4ccccc4)c3)nc3cncc(C4CC4)c23)CC[C@@H]1O (racemic) [Example 675, (+/−)-(cis)-1-[5-Cyclopropyl-2-(2-phenylamino-pyridin-4-yl)-pyrido[3,4-d]pyrimidin-4-yl]-piperidine-3,4-diol] | 100 to 1000 nM |
| Clc1cc2c(-c3nc(N4CCNCC4)c4c(C5CC5)cncc4n3)ccnc2[nH]1 [Example 2074, 2-(2-Chloro-1H-pyrrolo[2,3-b]pyridin-4-yl)-5-cyclopropyl-4-piperazin-1-yl-pyrido[3,4-d]pyrimidine] | < 100 nM |
| CN(C)[C@H](CNc1nc(-c2ccncc2)nc2cnccc12)Cc1ccccc1 [Example 25, N,N-Dimethyl[(2S)-1-phenyl-3-{[2-(pyridin-4-yl)-pyrido[3,4-d]-pyrimidin-4-yl]-amino}propan-2-yl]amine] | 100 to 1000 nM |
| c1cc2c(N[C@@H]3CCNC3)nc(-c3ccnc4[nH]ccc34)nc2cn1 [Example 1208, (R)-Pyrrolidin-3-yl-[2-(1H-pyrrolo[2,3-b]pyridin-4-yl)-pyrido[3,4-d]pyrimidin-4-yl]-amine] | 100 to 1000 nM |
| COc1cncc2nc(-c3ccnc(Nc4cccc(F)n4)c3)nc(N3CCNCC3)c12 [Example 447, (6-Fluoro-pyridin-2-yl)-[4-(5-methoxy-4-piperazin-1-yl-pyrido[3,4-d]pyrimidin-2-yl)-pyridin-2-yl]-amine] | < 100 nM |
| COc1ccc(F)c(Nc2cc(-c3nc(N4CCNCC4)c4c(C5CC5)cncc4n3)ccn2)c1F [Example 566, [4-(5-Cyclopropyl-4-piperazin-1-yl-pyrido[3,4-d]pyrimidin-2-yl)-pyridin-2-yl]-(2,6-difluoro-3-methoxy-phenyl)-amine] | < 100 nM |
| OC1CCN(c2nc(-c3ccnc4[nH]c(C5(c6ccccc6)CC5)cc34)nc3cncc(C4CC4)c23)CC1 [Example 1244, 1-{5-Cyclopropyl-2-[2-(1-phenyl-cyclopropyl)-1H-pyrrolo[2,3-b]pyridin-4-yl]-pyrido[3,4-d]pyrimidin-4-yl}-piperidin-4-ol] | < 100 nM |
| CN(CC1CCNCC1)c1nc(-c2ccnc(Nc3ncc(F)cc3F)c2)nc2cncc(C3CC3)c12 [Example 2167, {5-Cyclopropyl-2-[2-(3,5-difluoro-pyridin-2-ylamino)-pyridin-4-yl]-pyrido[3,4-d]pyrimidin-4-yl}-methyl-piperidin-4-ylmethyl-amine] | < 100 nM |
| CC(C)c1cccc(Nc2cc(-c3nc(N4CCNCC4)c4c(C5CC5)cncc4n3)ccn2)c1 [Example 622, [4-(5-Cyclopropyl-4-piperazin-1-yl-pyrido[3,4-d]pyrimidin-2-yl)-pyridin-2-yl]-(3-isopropyl-phenyl)-amine] | < 100 nM |
| CCOc1ccc(F)c(Nc2cc(-c3nc(N4CCNCC4)c4c(C5CC5)cncc4n3)ccn2)c1F [Example 567, [4-(5-Cyclopropyl-4-piperazin-1-yl-pyrido[3,4-d]pyrimidin-2-yl)-pyridin-2-yl]-(3-ethoxy-2,6-difluoro-phenyl)-amine] | < 100 nM |
| c1ccc2c(Nc3cc(-c4nc(N5CCNCC5)c5c(C6CC6)cncc5n4)ccn3)nccc2c1 [Example 2089, [4-(5-Cyclopropyl-4-piperazin-1-yl-pyrido[3,4-d]pyrimidin-2-yl)-pyridin-2-yl]-iso[D4],[D3]uinolin-1-yl-amine] | < 100 nM |
| COc1cncc2nc(-c3ccnc(NC(=O)[C@@H](C)c4ccccc4)c3)nc(N3CCNCC3)c12 [Example 409, (S)-N-[4-(5-Methoxy-4-piperazin-1-yl-pyrido[3,4-d]pyrimidin-2-yl)-pyridin-2-yl]-2-phenyl-propionamide] | 100 to 1000 nM |
| CC(=O)Nc1cc(-c2nc(N3CCNCC3)c3c(Cl)cncc3n2)ccn1 [Example 251, N-[4-(5-Chloro-4-piperazin-1-yl-pyrido[3,4-d]pyrimidin-2-yl)-pyridin-2-yl]-acetamide] | 100 to 1000 nM |
| Cc1cc2c(-c3nc(N4CCNCC4)c4c(C5CC5)cncc4n3)ccnc2[nH]1 [Example 1217, 5-Cyclopropyl-2-(2-methyl-1H-pyrrolo[2,3-b]pyridin-4-yl)-4-piperazin-1-yl-pyrido[3,4-d]pyrimidine] | < 100 nM |
| N[C@H](CNc1nc(-c2ccncc2)nc2c(-c3ccco3)nccc12)Cc1ccccc1 [Example 115, N-[(2S)-2-amino-3-phenylpropyl]-8-(furan-2-yl)-2-(pyridin-4-yl)pyrido[3,4-d]pyrimidin-4-amine] | < 100 nM |
| c1cc(Nc2cc(-c3nc(N4CCC4)c4c(C5CC5)cncc4n3)ccn2)cc(N2CCNCC2)c1 [Example 767, [4-(4-Azetidin-1-yl-5-cyclopropyl-pyrido[3,4-d]pyrimidin-2-yl)-pyridin-2-yl]-(3-piperazin-1-yl-phenyl)-amine] | 100 to 1000 nM |
| c1ccc2c(c1)CC(Nc1cc(-c3nc(N4CCNCC4)c4c(C5CC5)cncc4n3)ccn1)C2 [Example 2097] | < 100 nM |
| Clc1cccc(Nc2cc(-c3nc(N4CCNCC4)c4c(C5CC5)cncc4n3)ccn2)c1Cl [Example 542, [4-(5-Cyclopropyl-4-piperazin-1-yl-pyrido[3,4-d]pyrimidin-2-yl)-pyridin-2-yl]-(2,3-dichloro-phenyl)-amine] | 100 to 1000 nM |
| COC[C@H]1CN(c2nc(-c3ccnc4[nH]ccc34)nc3cncc(OC)c23)CCN1 [Example 1205, 5-Methoxy-4-((R)-3-methoxymethyl-piperazin-1-yl)-2-(1H-pyrrolo[2,3-b]pyridin-4-yl)-pyrido[3,4-d]pyrimidine] | 100 to 1000 nM |
| Cc1cc2c(-c3nc(N4CCNC(C(F)(F)F)C4)c4c(C5CC5)cncc4n3)ccnc2[nH]1 (stereo not drawn) [Example 1215, 5-Cyclopropyl-2-(2-methyl-1H-pyrrolo[2,3-b]pyridin-4-yl)-4-(3-trifluoromethyl-piperazin-1-yl)-pyrido[3,4-d]pyrimidine] | < 100 nM |
| CC(C)(c1ccccc1)c1cc2c(-c3nc(N4CCNCC4)c4c(C5CC5)cncc4n3)ccnc2[nH]1 [Example 2086, 5-Cyclopropyl-2-[2-(1-methyl-1-phenyl-ethyl)-1H-pyrrolo[2,3-b]pyridin-4-yl]-4-piperazin-1-yl-pyrido[3,4-d]pyrimidine] | < 100 nM |

Reference: US9914730B2, “Azaquinazoline inhibitors of Atypical protein Kinase C” (Ignyta, Inc., priority 2012, dated 2018)
